# Tested on: corn rootworm larvae
# Assay: corn rootworm feeding damage field screen, root damage rated on the Node-Injury Scale
# Assay type: in vivo, Diabrotica spp.
# Conditions: Node-Injury Scale 0-3; insecticide treated non-insecticidal protein containing corn plants; 5 ounces per 1000 feet of row; artificially infested plots
# Method: Transgenic corn plants were assayed for corn rootworm resistance to feeding damage by greenhouse and field screens. Root damage was rated using the Node-Injury Scale (NIS) developed by Oleson and Tollefson of Iowa State University, this scale rates damage done to corn roots using 0-3 values. The 0.00 value describes no feeding damage and is the lowest rating, 1.00 describes one node or the equivalent of an entire node eaten back to within approximately two inches of the stalk, 2.00 describes two complete nodes eaten, and 3.00 describes three or more nodes eaten and is the highest rating. Damage in between complete nodes eaten is noted as the percentage of the node missing, i.e., 1.50 describes 1½ nodes eaten, 0.25 describes ¼ of one node eaten. Field plots were artificially infested with corn rootworm larvae by applying 1500-2000 eggs per linear foot of row at the V3-V4 growth stage. Insecticide treated rows were treated with Tefluthrin insecticide (Force® 3G, Zeneca Ag Products) at a rate of 5 ounces per 1000 feet of row.
smiles,measurement,value
Cc1c(F)c(F)c(COC(=O)[C@@H]2[C@H](/C=C(\Cl)C(F)(F)F)C2(C)C)c(F)c1F (racemic) [Tefluthrin],average RDR,0.44

# From patent US9556492B2, “Corn plant MON88017 and compositions and methods for detection thereof” (Monsanto Technology LLC, priority 2003, dated 2017)
